In patent US10383912B2, “Tunable pH-sensitive linker for controlled drug release” (Washington State University, priority 2014, dated 2019):

How the values were obtained:
[1] = pH stability: half-lives for P—N bond hydrolysis of model linkers; format: physicochemical
Text: The present disclosure provides a method of screening for conjugates that can deliver an agent at a specific pH. In one aspect, conjugates having formula (I) comprising various substituents neighboring the ionizable group and having varying length between the ionizable group and the phosphorus center could be screened to determine which conjugates will hydrolyze at pH 3.0, 3.5, 4.0, 4.5, 5.0, 5.5, 6.0, and 6.5. In another aspect, a specific conjugate can be screened to determine at which pH it will hydrolyze or which pH its rate of hydrolysis is the fastest. The hydrolysis of the conjugate can be monitored by nuclear magnetic resonance (NMR) (FIG. 6), HPLC, spectrophotometric methods, or mass spectrometry.
It was observed from studies on distance effects that proximity of a neighboring, but electronically isolated, functional group, can be used to alter the stability of a phorphoramidate bond.

[2] = Plasma stability of cleavable linkers; format: in vitro ADME
Procedure: When a conjugate is administered to a subject in vivo, its plasma stability is important. The present disclosure provides conjugates with the desired plasma stability. Plasma stability of cleavable linkers with the desired release profile are provided herein.

| ½ Lives for P—N Bond Hydrolysis, pH 3 [1] | ½ Lives for P—N Bond Hydrolysis, pH 4.5 [1] | ½ Lives for P—N Bond Hydrolysis, pH 5.5 ([1]; pH 5.5) | ½ Lives for P—N Bond Hydrolysis, pH 7.4 [1] | ½ Lives for P—N Bond Hydrolysis, pH 6.5 [1] | SMILES | also measured |
| --- | --- | --- | --- | --- | --- | --- |
| 1.9 hr | 19.3 hr | 8 day days | 90 day days | – | O=P(O)(NCCc1ccccc1)OCCCc1cccnc1 [Entry H5] | ½ Lives for P—N Bond Hydrolysis, pH 6.5 (result in words) [1]: Stable |
| 1.6 day days | 133 days | 16 day days | 27 day days | 8 days | O=P(O)(Nc1ccccc1)OCCCc1cccnc1 [Entry H7] | ½ Lives for P—N Bond Hydrolysis, pH 4.5 (result in words) [1]: Stable; ½ Lives for P—N Bond Hydrolysis, pH 6.5 (result in words) [1]: STABLE |
| 0.48 hr | – | 9.6 hr | 10 day days | 1.1 days | CN(c1ccccc1)P(=O)(O)OCCCc1cccnc1 [Entry H11] | – |
| 2.1 hr | 9.63 hr | 19.3 hr | 11 days | 24.1 hr | O=P(O)(NCCc1ccccc1)OCCCc1ccccn1 [Entry H41] | – |
| 1.6 day days | 8.9 day days | 2.0 days | 4 day days | 8 days | O=P(O)(Nc1ccccc1)OCCCc1ccccn1 [Entry H45] | – |
| – | – | – | – | – | CN(CCc1ccccc1)P(=O)(O)OCCc1ccccn1 [Entry H69] | ½ Lives for P—N Bond Hydrolysis, pH 3 (result in words) [1]: Unstable; ½ Lives for P—N Bond Hydrolysis, pH 4.5 (result in words) [1]: Unstable; ½ Lives for P—N Bond Hydrolysis, pH 5.5 (result in words) ([1]; pH 5.5): Unstable; ½ Lives for P—N Bond Hydrolysis, pH 6.5 (result in words) [1]: Unstable; ½ Lives for P—N Bond Hydrolysis, pH 7.4 (result in words) [1]: Unstable |
| 0.32 hr | – | 0.96 hr | 9.6 hr | 1.9 hr | O=P(O)(Nc1ccccc1)OCCc1ccccn1 [Entry H85] | – |
| 2.8 hr | – | 1.6 days | 16 days | 4 days | O=P(O)(NCCc1ccccc1)OCCc1cccnc1 [Entry H97] | – |
| 0.64 hr | 3.85 hr | 9.6 hr | 10 days | 19.3 hr | CN(c1ccccc1)P(=O)(O)OCCc1cccnc1 [Entry H105] | – |
| 4 days | 20 days | 8 days | 16 days | 2 days | O=P(O)(Nc1ccccc1)OCCc1cccnc1 [Entry H113] | ½ Lives for P—N Bond Hydrolysis, pH 6.5 (result in words) [1]: Stable |
| – | – | – | – | – | CN(c1ccccc1)P(=O)(O)OCCc1ccccn1 [Entry H115] | ½ Lives for P—N Bond Hydrolysis, pH 3 (result in words) [1]: Unstable; ½ Lives for P—N Bond Hydrolysis, pH 4.5 (result in words) [1]: Unstable; ½ Lives for P—N Bond Hydrolysis, pH 5.5 (result in words) ([1]; pH 5.5): Unstable; ½ Lives for P—N Bond Hydrolysis, pH 6.5 (result in words) [1]: Unstable; ½ Lives for P—N Bond Hydrolysis, pH 7.4 (result in words) [1]: Unstable |
| – | – | 0.13 hr | 2.1 hr | 0.32 hr | O=P(O)(NCCc1ccccc1)OCCc1ccccn1 [Entry H119] | ½ Lives for P—N Bond Hydrolysis, pH 3 (result in words) [1]: Unstable |
| 0.48 hr | – | 2.1 hr | 1.3 days | 3.9 hr | CN(c1ccccc1)P(=O)(O)OCCCc1ccccn1 [Entry H135] | – |
| – | 5.25 min | 38.5 min | 19.3 hr | 1.93 hr | Cc1ccc(C(=O)NC(COP(=O)(O)NCCc2ccccc2)C(=O)O)cc1 (stereo not drawn) [Entry H157] | – |
| 12.8 min | 3.21 hr | 19.25 hr | 26.7 days | 2.0 days | Cc1ccc(C(=O)NC(COP(=O)(O)Nc2ccccc2)C(=O)O)cc1 (stereo not drawn) [Entry H159] | – |
| – | 0.98 min | 16.5 min | 6.42 hr | 38.5 min | Cc1ccc(C(=O)NC(COP(=O)(O)N(C)c2ccccc2)C(=O)O)cc1 (stereo not drawn) [Entry H161] | – |
| – | – | 14.4 min | 6.42 hr | 57.8 min | CN(c1ccccc1)P(=O)(O)OCc1ccccc1C(=O)O [Entry I11] | – |

| SMILES | ½ Lives for P—N Bond Hydrolysis, pH 3 [1] | ½ Lives for P—N Bond Hydrolysis, pH 4.5 [1] | ½ Lives for P—N Bond Hydrolysis, pH 5.5 ([1]; pH 5.5) | ½ Lives for P—N Bond Hydrolysis, pH 7.4 [1] | ½ Lives for P—N Bond Hydrolysis, pH 6.5 [1] | also measured |
| --- | --- | --- | --- | --- | --- | --- |
| CN(CCc1ccccc1)P(=O)(O)OCCCc1cccnc1 [Entry H9] | 0.48 hr | – | 3.2 hr | 2.7 days | 19.3 hr | ½ Life for P—N Bond Hydrolysis, Plasma ([2]; Plasma (pH 7.23)): 27.5 h |
| CN(CCc1ccccc1)P(=O)(O)OCCCc1ccccn1 [Entry H43] | 0.21 hr | – | 1.2 hr | 21.4 hr | 3.85 hr | ½ Life for P—N Bond Hydrolysis, Plasma ([2]; Plasma (pH 7.38)): 19.3 h |
| CN(CCc1ccccc1)P(=O)(O)OCCc1cccnc1 [Entry H99] | 0.39 hr | 1.93 hr | 3.2 hr | 1.6 days | 9.6 hr | – |
| CN(CCc1ccccc1)P(=O)(O)OCCCc1ccccc1 [Entry H133] | – | – | 9.6 hr | – | – | ½ Life for P—N Bond Hydrolysis, pH 5.5, second value in parentheses ([1]; pH 5.5, value in parentheses, meaning not explained): 1.9 hr |
| Cc1ccc(C(=O)NC(COP(=O)(O)N(C)CCc2ccccc2)C(=O)O)cc1 (stereo not drawn) [Entry H155] | – | – | 3.98 min | 1.93 hr | 9.63 min | – |
| Cc1ccc(C(=O)NC(CCOP(=O)(O)N(C)CCc2ccccc2)C(=O)O)cc1 (stereo not drawn) [Entry H179] | – | 0.96 hr | 9.62 hr | 2 Days days | – | – |
